How the values were obtained:
sexual disfunction [1] = assay: Test for volunteers (voluntary patient with disfunction for more than ten years); type: in vivo, human; conditions: one voluntary patient, 12 capsules (500 mg/grain) by oral in three days
sexual disfunction [2] = assay: Clinic tests in male patients with sexual disfunction; type: in vivo, human; conditions: two weeks
Protocol: 32 examples of male patients were picked out, who had been repeatedly treated for sexual disfunction with current treatment method, but these treatments were failed, the patients are classified clinically into heavy, medium and light degree disease, separately administrated with N-acetyl-D-glucosamine in the form of capsule by oral (500 mg/day) and alcoholic solution (50 mg/1000 ml) by oral (10 ml/day), using two weeks as a period of treatment, and before and after the administration, and comparing the condition of the patient's symptom by detecting luteinizing hormone (LH), follicular stimulating hormone (FSH), prolactin (PRL), testosterone (T), estradiol (E2) and local blood flux. […] After treatment, the curative effect was steady and could be maintained for a long time.

Proteus Mirabilis = assay: Promoting wave test (bacterial bio-wave growth model); type: cell-based; conditions: final concentration of 0.5% on LB plate, 37° C.
Text: The following experimental examples are used to illustrate the promoting wave function, low toxicity and effectiveness for preventing and treating the sexual disfunction of the compound of the present invention (the compound of formula (I)). • I. Promoting wave test of the compound of formula (I) • 1. Experimental materials and method: • 1.1 Samples: pure compound of formula (I) • 1.2 Experimental materials: […]
Strain: Proteus Mirabilis (which should comply with the following biological reaction characteristics: dynamics (+), urease (+), lactose (−), glucose (+), H2S (−), phenylalanine deaminase (+).
Culture medium: modified LB culture medium (the component of the composition are: trytones of 1%, yeast extract of 0.5%, sodium chloride 1%, glucose of 0.1%, TTC of 0.002% and pH=7.2˜7.4). • 1.3 Experimental method:
Experimental results and evaluation:
The experiment adopts a bio-wave model which is used to research the promoting wave function of the compound of formula (I). […] Toxicological test of the compound of formula (I), including: • 1. acute toxicity test: including tests of administrating medicine by oral, intravenous injection and maximum limit amount for administration; • 2. […]

[3] = 32 male patients, capsule 500 mg/day or alcoholic solution 10 ml/day by oral

CC(=O)N[C@@H]1[C@@H](O)[C@H](O)[C@@H](CO)O[C@H]1O [N-acetyl-D-glucosamine]
duration of the effect (sexual disfunction [1]): keep normal over two years
sexual function after treatment (sexual disfunction [1]): sexual function was recovered to normal
cure rate (sexual disfunction [2]; [3]): 72%
total effective rate (sexual disfunction [2]; [3]): 90%
patients in whom treatment failed (sexual disfunction [2]; of 32 male patients, oral): 2 patients
patients turned from heavy and medium degree into light degree (sexual disfunction [2]; of 32 male patients, oral): 7 patient
patients who became normal after treatment (sexual disfunction [2]; of 32 male patients, oral): 23 patients
promoting wave function (wave pattern of concentric rings compared with control) (Proteus Mirabilis): many fine waves on each ring emerged
